Experimental data as given in paper PMC11220795 (Molecular Pharmaceutics, 2024).

Test: Drug solubility in medium-chain triglycerides (MCT, Miglyol 812 N); SORESOS 96-well assay, miniaturized shake-flask or literature
Details: decadic logarithm of molar solubility in MCTs (Miglyol 812 N), 24 h at room temperature; no literature source given
Procedure: The excipient complies with the quality specifications of the European Pharmacopoeia. The solvents used for the ultra-performance liquid chromatography (UPLC) quantification were of UPLC grade.
(b) employing a miniaturized version of the shake-flask method in 2 mL glass vials,[33] or (c) collecting data from the literature.[12],[34] Each of the employed assays involved residual solid-state screenings by powder X-ray diffraction to identify potential solid-state changes during solubility screenings.

Row | SMILES | log10 S [M]
1 | COc1ccc(N2CCOCC2)c2sc(NC(=O)N3CC[S+]([O-])CC3)nc12 [RO0712616] | -4.84
2 | COc1ccc(N2CCOCC2)c2sc(NC(=O)N3CCC(CO)CC3)nc12 [RO0725612] | -4.65
3 | Cc1cc(-c2cccc(C3=Nc4cc(C)c(C(F)(F)F)cc4NC(=O)C3)c2)ccn1 [RO4432717] | -2.89
4 | COc1ccc(C2CCOCC2)c2sc(NC(=O)N(C)C3CCC(O)CC3)nc12 (centres unmarked) [RO4518423] | -2.61
5 | CCC(CC)CC1(C(=O)Nc2ccccc2SC(=O)C(C)C)CCCCC1 [RO4607381] | -0.41
6 | Cc1cc(N(C)Cc2sc(-c3ccc(C(F)(F)F)cc3)nc2C)ccc1OCC(=O)O [RO4632615] | -2.28
7 | Cc1cc(OCc2ccc(-c3ccc(OC(F)(F)F)cc3)nc2)ccc1OC(C)(C)C(=O)O [RO4883572] | -2.52
8 | CC(C)(C)c1ccc(CN(CCc2cccc(C(F)(F)F)c2)C(=O)c2c(F)c(Cl)cc3cc[nH]c23)cc1 [RO4920902] | -1.55
9 | CC(C)(C)c1ccc(CN(CCc2ccc(F)c(C(F)(F)F)c2)C(=O)c2c(F)c(Cl)cc3cc[nH]c23)cc1 [RO4920915] | -1.47
10 | CC(C)(C(=O)NCC(F)(F)C(F)(F)F)C(=O)N[C@@H]1C(=O)Nc2ccccc2-c2ccccc21 [RO4929097] | -2.24
11 | FC(F)c1ncn2c1Cn1ncnc1-c1cc(Br)ccc1-2 [RO4938581] | -2.98
12 | Cc1ccc(Nc2cncnc2)c(C(=O)Nc2ccn(C)n2)n1 [RO5012841] | -2.35
13 | COc1ccc(Cl)cc1S(=O)(=O)N1CCOc2ccc(C(=O)Nc3ccc(C(=O)O)cc3)cc21 [RO5014449] | -4.05
14 | CC(C)(C)c1ccc(CN(CCc2cc(F)cc(C(F)(F)F)c2)C(=O)c2cc(C(F)(F)F)cc(Cl)c2F)cc1 [RO5072744] | 0.0355
15 | COc1ccc(Cl)cc1S(=O)(=O)N1CCOc2c(C)cc(C(=O)Nc3ccc(CC(=O)O)cc3)cc21 [RO5114497] | -3.73
16 | Cc1cc(-c2ccc(C(F)(F)F)cc2)cc(-c2cccc(-c3cccc(S(N)(=O)=O)c3)n2)n1 [RO5132673] | -2.96
17 | CCc1cc(CCN(Cc2ccc(C(C)(C)C)cc2)C(=O)c2cc(C(F)(F)F)cc(Cl)c2F)ccc1Cl [RO5132822] | -0.16
18 | CCCS(=O)(=O)Nc1ccc(F)c(C(=O)c2c[nH]c3ncc(-c4ccc(Cl)cc4)cc23)c1F [RO5185426] | -3.06
19 | O=C(N[C@@H]1CCCC[C@H]1O)c1cnc(OCC(F)(F)F)c(-c2ccc(Cl)c(Cl)c2)c1 [RO5267683] | -2.34
20 | CC1(C(=O)N2C[C@H](S(=O)(=O)c3ccc(OCC(F)(F)F)cc3C(F)(F)F)C[C@@H]2C(=O)NC2(C#N)CC2)CC1 [RO5444101] | -2.64
21 | Cn1cc(-c2ccc(S(=O)(=O)[C@@H]3C[C@@H](C(=O)NC4(C#N)CC4)N(C(=O)C4(C(F)(F)F)CC4)C3)c(C(F)(F)F)c2)cn1 [RO5459072] | -3.13

Row | SMILES | log10 S [M]
22 | COc1cc(C(=O)O)ccc1NC(=O)[C@@H]1N[C@@H](CC(C)(C)C)[C@](C#N)(c2ccc(Cl)cc2F)[C@H]1c1cccc(Cl)c1F [RO5503781] | -1.68
23 | CN(C(=O)c1ccc(C#Cc2cc(F)ccc2F)cn1)C(C)(C)C [RO6806127] | -1.29
24 | CN(C(=O)c1ncc(C#Cc2cccc(F)c2)cn1)C(C)(C)C [RO6807794] | -1.40
25 | Cc1sc(NC(=O)C2=C(C(=O)O)CCCC2)c(-c2nc(C3CC3)no2)c1C [RO6858805] | -2.99
26 | Cn1nnnc1Cn1nnc2c(N3CC[C@@H](O)C3)nc(C(C)(C)C)nc21 [RO6868847] | -1.56
27 | O=C(CCc1ccc(OC(F)(F)F)cc1)N1C[C@@H]2CN(C(=O)c3ccc4[nH]nnc4c3)C[C@@H]2C1 [RO6888975] | -4.07
28 | N#Cc1cc(-c2ccc(F)c(F)c2)c2c(c1)cc1n2CCNC1=O [RO6889199] | -3.08
29 | O=C(OCc1ccc(OC(F)(F)F)cc1)N1C[C@@H]2CN(C(=O)c3ccc4n[nH]nc4c3)C[C@@H]2C1 [RO6897779] | -3.50
30 | Cn1c(COc2cc(Cl)c(C#N)cc2C(C)(C)C)n[nH]c1=O [RO7189752] | -2.76
31 | O=C(O)COC(=O)Cc1ccccc1Nc1c(Cl)cccc1Cl [aceclofenac] | -1.84
32 | CO[C@@H](Cc1ccc(OCCc2nc(-c3ccccc3)oc2C)c2ccsc12)C(=O)O [aleglitazar] | -2.77
33 | CCOC(=O)C1=C(COCCN)NC(C)=C(C(=O)OC)C1c1ccccc1Cl (centres unmarked) [amlodipine] | -1.45
34 | C[C@@H](O[C@H]1OCCN(Cc2n[nH]c(=O)[nH]2)[C@H]1c1ccc(F)cc1)c1cc(C(F)(F)F)cc(C(F)(F)F)c1 [aprepitant] | -3.40
35 | CC(C(=O)O)c1ccc2c(c1)[nH]c1ccc(Cl)cc12 (centres unmarked) [carprofen] | -1.29
36 | CC(C)/N=c1\cc2n(-c3ccc(Cl)cc3)c3ccccc3nc-2cc1Nc1ccc(Cl)cc1 [clofazimine] | -1.65
37 | CC(C)(Oc1ccc(Cl)cc1)C(=O)O [clofibric acid] | -0.63
38 | O=C1Nc2ccc(Cl)cc2[C@@](C#CC2CC2)(C(F)(F)F)O1 [efavirenz] | -0.22
39 | C#Cc1cccc(Nc2ncnc3cc(OCCOC)c(OCCOC)cc23)c1 [erlotinib] | -2.70
40 | Cc1cc(C#N)cc(C)c1Oc1nc(Nc2ccc(C#N)cc2)nc(N)c1Br [etravirine] | -3.28
41 | OC(Cn1cncn1)(Cn1cncn1)c1ccc(F)cc1F [fluconazole] | -2.19
42 | O=C(O)c1ccccc1Nc1cccc(C(F)(F)F)c1 [flufenamic acid] | -0.68

Now from value to compound:

Row | log10 S [M] | SMILES
43 | -1.07 | CN(C(=O)C(C)(C)c1cc(C(F)(F)F)cc(C(F)(F)F)c1)c1cnc(N2CCOCC2)cc1-c1ccccc1Cl [RO0676789]
44 | -1.71 | COc1ccc(-c2ccccc2)c2sc(NC(=O)c3ccc(F)cc3)nc12 [RO0691911]
45 | -2.41 | COc1ccc(N2CCOCC2)c2sc(NC(=O)c3ccc(F)cc3)nc12 [RO0716689]
46 | -1.84 | COc1ccc(N2CCCCC2)c2sc(NC(=O)c3ccc(F)cc3)nc12 [RO0718883]
47 | -1.93 | COc1ccc(N2CCOCC2)c2sc(NC(=O)c3ccc(C(F)(F)F)cc3)nc12 [RO0720004]
48 | -2.03 | Cc1cc(F)ccc1-c1cc(N2CCS(=O)(=O)CC2)ncc1N(C)C(=O)C(C)(C)c1cc(C(F)(F)F)cc(C(F)(F)F)c1 [RO0728351]
49 | -3.00 | COc1ccc(N2CCOCC2)c2sc(NC(=O)c3ccnc(CN4CCCC4)c3)nc12 [RO0728617]
50 | -3.39 | COc1ccc(N2CCOCC2)c2sc(NC(=O)N(C)C3CCC(O)CC3)nc12 (centres unmarked) [RO4403289]
51 | -3.40 | COc1ccc(N2CCOCC2)c2sc(NC(=O)N3CCC(C)(O)CC3)nc12 [RO4494351]
52 | -2.38 | COc1cc(C(=O)Nc2nc3c(OC)ccc([C@H]4COCCO4)c3s2)ccn1 [RO4545823]
53 | -1.66 | CCO[C@H](Cc1ccc2c(ccn2Cc2nc(-c3ccccc3Cl)oc2C)c1)C(=O)O [RO4552952]
54 | -1.38 | Cc1cc(C#Cc2cn(-c3ccc(F)cc3)c(C)n2)ccn1 [RO4582939]
55 | -2.04 | COc1ccc(N2CCOCC2)c2sc(NC(=O)N(C)[C@@H]3C[C@H]4CC[C@@H]3O4)nc12 [RO4651862]
56 | -2.53 | O=C(Nc1ccc(Cl)cn1)[C@@H]1CN(CC(F)F)C[C@H]1C(=O)Nc1ccc(-n2ccccc2=O)cc1F [RO4934067]
57 | -4.19 | COc1ccc(C)cc1S(=O)(=O)N1CCCc2ccc(C(=O)Nc3ccc(C(=O)O)c(F)c3)cc21 [RO5033672]
58 | -3.11 | CN(C)C(=O)Cc1c(C(=O)O)n(Cc2cccc3ccccc23)c2ccc(F)cc12 [RO5066852]

Row | log10 S [M] | SMILES
59 | -2.53 | Cc1onc(-c2ccc(F)cc2)c1COc1ccc(C(=O)N2CCS(=O)(=O)CC2)cn1 [RO5186582]
60 | -1.90 | Cc1onc(-c2ccccn2)c1COc1ccc(C(=O)N2CCOCC2)cn1 [RO5234906]
61 | -2.89 | Cc1onc(-c2ccc(F)cn2)c1COc1ccc(C(=O)N2CCS(=O)(=O)CC2)cn1 [RO5292065]
62 | -2.90 | Cc1cccc(C#Cc2cn(-c3cnn(C)c(=O)c3)c(C)n2)c1 [RO5372709]
63 | -1.78 | COc1cc(C(F)(F)F)cc(SC)c1C(=O)N[C@@]1(c2ccccc2)C[C@@H](OC)CN(C)C1 [RO5469299]
64 | -3.23 | Cn1ncc(C(=O)N2CCOCC2)c1C(=O)Nc1ccn2nc(-c3ccccc3)nc2c1 [RO5545965]
65 | -1.31 | COC(=O)N1CC[C@@H]2[C@@H]1CCC[C@@]2(O)C#Cc1cccc(C)c1 [RO6805580]
66 | -1.07 | CN1C(=O)N(c2ccc(C#Cc3ccccc3)cn2)[C@@H]2CCC[C@H]21 [RO6805600]
67 | -2.47 | CC1(C)OC2(CCN(C3=NC(=O)C4(Cc5ccccc5C4)O3)CC2)c2cccnc21 [RO6953958]
68 | -2.24 | Cc1ccc(-c2noc(C)c2COc2ccc(C(=O)NC3CCOCC3)nn2)cn1 [RO7017773]
69 | -2.38 | CN1C(=O)N(c2c(F)cc(C#Cc3ccccc3)cc2F)C(=O)C[C@]12CCCc1ncccc12 [RO7059466]
70 | -2.69 | CN1CCN(c2ccc(C(=O)Nc3n[nH]c4ccc(Cc5cc(F)cc(F)c5)cc34)c(NC3CCOCC3)c2)CC1 [RO7102122]
71 | -2.37 | COc1ccc(CCN2CCC(Nc3nc4ccccc4n3Cc3ccc(F)cc3)CC2)cc1 [astemizole]
72 | -0.17 | CN(C)CCCN1c2ccccc2Sc2ccc(Cl)cc21 [chlorpromazine]
73 | -3.68 | O=C1CCc2cc(OCCCCc3nnnn3C3CCCCC3)ccc2N1 [cilostazol]
74 | -2.36 | CNC(=O)c1ccc(N2C(=S)N(c3ccc(C#N)c(C(F)(F)F)c3)C(=O)C2(C)C)cc1F [enzalutamide]
